The values below come from patent US7186703B2, “Derivatives of branched-chain lipophilic molecules and uses thereof” (D-Pharm Ltd., priority 2000, dated 2007).

Experiment [1] concerns Normal bone marrow (BM) cells. Description: MTT cytotoxicity, normal bone marrow cells. In kind it is cell-based, mouse. The following applies: five days, read-out: EC50 (50% reduction in cell viability). How it is done: (§1) The cytotoxic activity of various phospho-derivatives of branched-chain fatty acids (DP-BFAs) was assayed in vitro in cell cultures that include normal and malignant cell types. The following cell systems were used: • Primary fibroblasts (human) • Normal bone marrow (BM) cells (mouse) • Primary bronchial epithelial cells (human, from Clonetics, cat. no. CC-2541) • Caco-2—colon cancer cell line (human, ATTC, HTB-37) • C6 glioma cell line (rat, ATCC, CRL-2199) • Neuro2a—neuroblastoma cell line (mouse, ATCC, CCL-131) • SKBR-3—breast cancer cell line (human, ATTC, HTB-30) • HL60—myeloid leukemia cell line (human, ATCC, CCL-240) • U937—myeloid leukemia cell line (human)
(§2) Cells were seeded in a microtiter plate in MEM containing 2 mM L-glutamine, 100 units/ml penicillin, 100 ug/ml streptomycin and 10% FCS at 37° C. The cultured cells were incubated, during their linear growth phase in the absence (control group) or presence of various DP-BFAs as indicated. The final concentrations of the tested DP-BFAs ranged from 1.5 to 200 microMolars. At the end of the incubation period, which was five days for the bone marrow cells and three days for all the other cell lines, the cytotoxic effect of the added P-BFA on the cells was estimated by using the colorimetric MTT assay. The MTT assay (Mosmann (1983) J. Immunol Methods 65: 55–63) measures mitochondrial reductase activity and serves for quantitative assessment of cellular viability. Drug concentration that causes 50% reduction in cell viability in comparison to the control group, is defined as EC50. The EC50 values of the tested DP-BFA compounds were calculated from dose response curves established for each of the different assayed cell lines.
(§3) Each EC50 value is an average of EC50 values derived from 1–5 independent experiments.

For experiment [2], the system named is Caco-2 colon cancer cell line. Description: MTT cytotoxicity, Caco-2. In kind it is cell-based, human. The following applies: Caco-2, three days, read-out: EC50 (50% reduction in cell viability). How it is done: as §1, §2, §3
Experiment [3] relates to Primary fibroblasts. In words: MTT cytotoxicity, normal primary fibroblasts. The conditions noted are these: three days, read-out: EC50 (50% reduction in cell viability). Format: cell-based, human. How it is done: as §1, §2, §3
Experiment [4] relates to blood brain barrier (BBB). Description: BBB permeability to EB-albumin and Fluorescein in normal rat brains. Format: in vivo. The following applies: compounds at EC50 (Mannitol 25%); for % EB/g brain: control 0.04 ± 0.01; for Brain fluorescein uptake (% of serum F-Na level): control 0.3 ± 0.08; for Ratio F-Na/EB (mean of individual ratios): control 9.5 ± 1.6. From the text: The effect of various DP-BFAs on BBB permeabilization to molecules of different sizes was examined in vivo in the model system of normal rat brains.
The transport of two markers was followed: a) Evans blue bound to albumin (MW 70 kD) as an indicator for paracellular transport; and b) Fluorescein sodium salt (MW 376 D) that represents small size molecules.
The Evans blue dye (EB) and Fluorescein sodium salt (F—Na) were infused into the artery carotis externa over 30 seconds according to the protocol described above in Example 17. The test compounds were used at their EC50 concentrations. Control animals were treated with vehicle solution.
Evans blue extravasation is expressed as the percentage of the total amount of EB accumulated per one gram of brain tissue. The transport of fluorescein into the brain, which is dependent on the serum concentration of this molecule, is presented as percentage of the F—Na level in the serum.

The subject of experiment [5] is SKBR-3 breast cancer cell line. In words: MTT cytotoxicity, SKBR-3. Format: cell-based, human. The conditions noted are these: three days, read-out: EC50 (50% reduction in cell viability). How it is done:
as §1, §2, §3

The subject of experiment [6] is Primary bronchial epithelial cells. Description: MTT cytotoxicity, normal primary epithelial cells. In kind it is cell-based, human. The following applies: Normal primary epithel, three days, read-out: EC50 (50% reduction in cell viability). As for the experimental part: as §1, §2, §3
Experiment [7] relates to C6 glioma cell line. Description: MTT cytotoxicity, C6 glioma. Format: cell-based, rat. The conditions noted are these: three days, read-out: EC50 (50% reduction in cell viability). How it is done: as §1, §2, §3
Experiment [8] concerns blood brain barrier (BBB). Description: BBB permeabilization in rats, Evans blue extravasation into brain. Format: in vivo, Sprague-Dawley rats. The following applies: Table 6; for μg EB/g brain (at EC50): at EC50 (Mannitol at 25%). From the text:
Permeabilization of the BBB by DP-BFA was investigated in rat model system by monitoring accumulation in the brain of two markers: a) Evans blue dye (EB), which rapidly binds in vivo with albumin (NW 70 kD) and is an indicator for paracellular transport; and b) Fluorescein sodium salt (F—Na), MW 376 D, which is transported via the cellular space, and enables monitoring transcellular transport. Upon BBB disruption the Evans blue-albumin complex irreversibly accumulates in the intercellular space of the brain. The much smaller tracer fluorescein may be transported intracellularly to occupy both inter and intracellular space in the brain.
Blood brain barrier permeabilization in Sprague-Dawley rats was induced by brief exposure to DP-BFA. The animals were anesthetized with Rampun-Imalgen and DP-BFA test compounds were administered via the external carotid artery retrograde to the brain (Smith, Q. R. Methods of study. In: Physiology and Pharmacology of the Blood-Brain Barrier. Ed. Bradbury M. W. B. Spinger-Verlag. Berlin-Heidelberg-NY; 1992: 24–52). The pterygo-palathina artery was ligated to avoid escape of infused solutions towards the external head vasculature. DP-BFA solutions were infused over a period of 30 seconds or half an hour, using a Harvard Apparatus Syringe Pump. Blood flow through carotid communis artery was interrupted only at the time of infusion.
All tested DP-BFA molecules were prepared from stock solutions in either water or ethanol by diluting 200–1000 fold into solution of isosmotic mannitol (5%) in Tromethamine buffer (Sigma) or PBS (pH 7.4)
The markers, Evans blue (EB, 25 mg/ml) and fluorescein (F—Na, 12.5 mg/ml), in 1 ml solution, were injected intravenously immediately following administration of the tested DP-BFA, or after a specific time interval if reversibility of action was investigated. Supportive i.v. infusion of F—Na (12.5 mg/ml–100 μl/min) was performed for 8 minutes. Brains were washed with saline solution (60 ml) 10 min after the intracarotid “flash”. Brain ipsilateral and contralateral hemispheres and tumors, where applicable, were homogenized separately with 50% trichloroacetic acid (TCA). The markers concentrations in the cortex and in tumors, where, applicable, were determined spectrofluorometrically (Uyama, O. et al., (1988) J. Cereb. Blood Flow Metab. 8, 282–284: Abraham et al., (1996) Neurosci. Lett. 208, 85–88). The markers content was calculated as μg marker per one-gram brain tissue. Standard error and Student's test for statistical significance were used.
The experiment was carried out on male Sprague-Dawley rats weighing 250–320 g. The procedure described above in Example 17 was followed.
The effect of the tested compounds on the BBB opening was evaluated by two parameters:
a) efficacy—The degree of BBB opening estimated in terms of accumulation of Evans Blue albumin (μg EB/g brain tissue); and
b) potency—measured in terms of EC50 and minimal effective concentration (MEC) values. EC50 is the concentration of a tested compound producing 50% of the maximal effect of Evans Blue extravasation.
The effect of various DP-BFAs on BBB permeability was tested in the model system of rat brains, as described above in Example 17. Efficacy, namely the level of the BBB opening was expressed as the amount of Evans blue accumulated in the brain (μg EB/g brain). Potency of the tested molecules was estimated by their calculated EC50 and minimal effective concentration (MEC) values.

In experiment [9] the test system is Neuro2a neuroblastoma cell line. Description: MTT cytotoxicity, Neuro2a. In kind it is cell-based, mouse. The following applies: three days, read-out: EC50 (50% reduction in cell viability). As for the experimental part: as §1, §2, §3
For experiment [10], the system named is U937 myeloid leukemia cell line. Description: MTT cytotoxicity, U937. Format: cell-based, human. The following applies: U937, three days, read-out: EC50 (50% reduction in cell viability). How it is done:
as §1, §2, §3

Experiment [11] has as its system blood brain barrier (BBB). In words: BBB opening in C6 glioma-bearing rats, Evans blue accumulation in non-tumor brain. In kind it is in vivo, Sprague Dawley rats. The conditions noted are these: concentrations around EC50 (Mannitol 25%), unilateral 30 s infusion. How it is done: (§4) In order to study the ability of DP-BFA compounds to modulate blood tumor barrier (BTB), a model system of C6 glioma-bearing rats, was employed.
(§5) Sprague Dawley (SD) rats were inoculated with C6 gliosarcoma cells following the procedure described by Bartus et al. (Exp Neurol (1996); 142:14–28). A small burr-hole was made in the frontal scalp bone of the rat fixed in a stereotaxis apparatus. Using a Hamilton syringe, 10 μl or 5 μl of media, containing 2.5×10^5 C6 gliosarcoma cells were inoculated into the frontal cortex. Coordinates were 1 mm posterior of bregma, 2.5 mm—lateral, and 3 mm—depth. The needle remained in the place for 5 min. After removal of the needle, fascia and scalp were sutured. The rats were checked 6–8 days after inoculation, when tumors of sufficient size (20–60 mg) had developed. The tumor was weighed after F—Na visualization and dissection. Parts of the rats' brains were subject to histological examinations and monitored for Evans Blue and Fluorescein uptake into ipsilateral tumour tissue, peritumoural tissue and contralateral tissue.
(§6) The bilateral tumor model system of C6 glioma-bearing rats described in Example 23 above was employed for screening of various derivatives of DP-BFA for their ability to permeabilize the blood brain barrier (BBB) in comparison to their effect on the blood tumor barrier (BTB). The experimental procedure described in Example 23 was followed except that the tumor-bearing rats were further treated with DP-BFA. The tested compounds, at concentrations around their EC50 values, were unilaterally infused into the external carotis artery over 30 seconds as described in Example 17. Animals treated with vehicle only serve as a control group. Permeabilization effect was quantitated by measuring accumulation of albumin bound Evans blue dye in tumor (T) versus non-tumor (NT) tissues.
(§7) Specificity index is defined as the ratio between the levels of EB accumulated in tumor and those accumulated in non-tumor brain tissues (T/NT).

The test system of experiment [12] is blood tumor barrier (BTB) of C6 glioma. In words: BTB opening in C6 glioma-bearing rats, Evans blue accumulation in tumor. Format: in vivo, Sprague Dawley rats. The conditions noted are these: for Specificity Tumor/Non-tumor (T/NT): ratio of EB accumulated in tumor and non-tumor brain. As for the experimental part:
as §4, §5, §6, §7

Experiment [13] deals with blood tumor barrier / blood brain barrier. Description: Unilateral administration in rats with bilateral C6 gliomas, Evans blue staining of brain sections. In kind it is in vivo, SD rats. The conditions noted are these: 10 μM 3,12-DEG-HPO4Na; 40 μM 3,12-Na; 25% mannitol; unilateral infusion. How it is done: FIGS. 2A–C depict Evans blue accumulation in brain sections of rats bearing bilateral gliomas following unilateral administration of a compound as follows: 10 μM 3,12-DEG-HPO4Na (FIG. 2A), 40 μM 3,12-Na (FIG. 2B) or mannitol 25% (FIG. 2C).
Evans Blue and Fluoroscein penetration into gliomas tumors was examined following unilateral infusion into the external carotis artery of either 10 μM 3,12-DEG-HPO4Na (FIG. 2A), 40 μM 3,12-Na BFA (FIG. 2B) or 25% mannitol (FIG. 2C). The relevant compound was infused into rat brains at 9 to 12 days following inoculation of C6 glioma cells as described in Example 23.

Values joined by “and” are separate entries in the source; they are usually repeats but may differ in a detail not shown here. Equal entries are not always repeated.

In the case of `CCCCCCCCCCCCC(CCC)OCCOCCOP(=O)([O-])[O-].[Na+].[Na+]` (stereo not drawn) [3,12-(ether)-DEG-PO4Na2, 2(4-Hexadecanoxy)ethoxyethyl Disodium Phosphate], the EC50 in experiment [1] is 68 µM; in [2], 47 µM; in [3], 65 µM; in experiment [5] it was 58 µM; in experiment [6], > 200 µM; in [7] it was 40 µM. For the same compound, the EC50 came to 54 ± 5 µM in [8] (rat brains, Evans blue extravasation, read-out: EQ50 (the source's name)); 37 µM in experiment [9]; 10 µM in experiment [10]. In experiment [4], the “% EB/g brain” value stood at 4 ± 0.8%. Further, the “Brain fluorescein uptake (% of serum F-Na level)” value in experiment [4] is reported as 4.4 ± 0.9 % of the F—Na level in the ser. For the same compound, the “Ratio F-Na/EB (mean of individual ratios)” value (from here on “Ratio F-Na/EB”) in experiment [4] is 1.1 and 1.1 ± 0.2. For the same compound, the “μg EB/g brain (at EC50)” value in experiment [8] was 26 μg EB/g brain and 26 ± 5.2 μg EB/g brain. In addition, the “MEC (minimal effective concentration)” value in experiment [8] (concentration giving 3 μg EB/g brain) stood at 7.3 ± 1.4 µM.
Turning to `OC[C@@H](O)[C@@H](O)[C@H](O)[C@H](O)CO` [Mannitol, mannitol, reference compound], in [4], the “% EB/g brain” value is reported as 0.6 ± 0.21%, the “Brain fluorescein uptake (% of serum F-Na level)” value is reported as 2.4 ± 0.4 % of the F—Na level in the ser and the “Ratio F-Na/EB” value turned out to be 4.0 ± 0.5. The “Ratio F-Na/EB” value in [4] (listed as mannitol) was found to be 4. In experiment [11], the “BBB EB μg/g Non-tumor brain” value is 7 ± 2 µg/g. Also, the “BTB EB μg/g Tumor” value in [12] (concentrations around EC50 (Mannitol 25%), unilateral 30 s infusion) stood at 12 ± 2 µg/g. Besides, the “Specificity Tumor/Non-tumor (T/NT)” value in experiment [12] is listed as 2.1 ± 0.5. In experiment [12] (listed as mannitol), the “Specificity Tumor/Non-tumor (T/NT)” value is reported as “about twice”. Further, the “μg EB/g brain (at EC50)” value in experiment [8] is 10 ± 2 μg EB/g brain. Besides, the “Evans Blue staining of tumor and non-tumor brain (FIG. 2, in words)” value in [13] was “equally permeabilized tumor and non-tumor brain tissues”.
